The values that follow come from patent US9809625B2, “Immunomodulators” (BRISTOL-MYERS SQUIBB COMPANY, priority 2015, dated 2017).

pIC50: −log10 of the molar value. Bridge positions count the residues as written; N and C are the ends. Square brackets hold non-standard residues; d marks the D form. Peptide text beside a SMILES is read from it. * marks the point of attachment. ξ: configuration not given here. Piperazinyl(4-Ph) = c1ccc(N2CCN(*)CC2)cc1; Hyp = O=C(O)[C@@H]1C[C@@H](O)CN1; ξW = NC(Cc1c[nH]c2ccccc12)C(=O)O; NMeNle = CCCC[C@H](NC)C(=O)O; X5 = Clc1ccc(C2CCN(*)CC2)cc1; X3 = CN(CCN*)C(=O)OC(C)(C)C; X7 = CC(C)(C)OC(=O)NCCCCCN*; NMeA = CN[C@@H](C)C(=O)O; Dap = NC[C@H](N)C(=O)O; X13 = CS(=O)(=O)CCN*; X12 = OCC1CCN(*)CC1; X6 = O=C1CN(*)CCN1; OtBu = CC(C)(C)O*; βAla = NCCC(=O)O; Sar = CNCC(=O)O

The target of this test is T1, PD-1-Ig binding to PD-L1-TVMV-His (PD-L1-His) (Homo sapiens, UniProt Q9NZQ7).
T1 construct: hPDL1(19-239)-TVMV-His; TVMV protease cleavage site (C); made in house; host or cells: HEK293T
T1 sequence (Q9NZQ7 with tags, fused parts or gaps): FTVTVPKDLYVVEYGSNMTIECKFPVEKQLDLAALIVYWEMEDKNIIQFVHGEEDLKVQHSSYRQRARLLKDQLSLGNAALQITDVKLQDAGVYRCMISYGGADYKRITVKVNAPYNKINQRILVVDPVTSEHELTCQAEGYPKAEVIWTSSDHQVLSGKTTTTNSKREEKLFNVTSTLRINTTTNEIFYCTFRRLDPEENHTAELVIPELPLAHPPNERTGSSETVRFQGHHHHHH
The test is described as follows: PD-1/PD-L1 Homogenous Time-Resolved Fluorescence (HTRF) binding assay. The following applies: PD-1-Ig (20 nM)/PD-L1-His (10 nM), range classes. An excerpt:
Methods for Testing the Ability of Macrocyclic Peptides to Compete for the Binding of PD-1 to PD-L1 Using Homogenous Time-Resolved Fluorescence (HTRF) Binding Assays
The ability of the macrocyclic peptides of the present disclosure to bind to PD-L1 was investigated using a PD-1/PD-L1 Homogenous Time-Resolved Fluorescence (HTRF) binding assay.
Homogenous Time-Resolved Fluorescence (HTRF) Assays of Binding of Soluble PD-1 to Soluble PD-L1. Soluble PD-1 and soluble PD-L1 refers to proteins with carboxyl-end truncations that remove the transmembrane-spanning regions and are fused to heterologous sequences, specifically the Fc portion of the human immunoglobuling G sequence (Ig) or the hexahistidine epitope tag (His). All binding studies were performed in an HTRF assay buffer consisting of dPBS supplemented with 0.1% (w/v) bovine serum albumin and 0.05% (v/v) Tween-20. For the PD-1-Ig/PD-L1-His binding assay, inhibitors were pre-incubated with PD-L1-His (10 nM final) for 15 m in 4 μl of assay buffer, followed by addition of PD-1-Ig (20 nM final) in 1 μl of assay buffer and further incubation for 15 m. PD-L1 fusion proteins from either human, cynomologous macaques, mouse, or other species were used. HTRF detection was achieved using europium crypate-labeled anti-Ig monoclonal antibody (1 nM final) and allophycocyanin (APC) labeled anti-His monoclonal antibody (20 nM final). Antibodies were diluted in HTRF detection buffer and 5 μl was dispensed on top of binding reaction. The reaction was allowed to equilibrate for 30 minutes and signal (665 nm/620 nm ratio) was obtained using an EnVision fluorometer. Additional binding assays were established between PD-1-Ig/PD-L2-His (20 and 5 nM, respectively), CD80-His/PD-L1-Ig (100 and 10 nM, respectively) and CD80-His/CTLA4-Ig (10 and 5 nM, respectively). Binding/competition studies between biotinylated Compound No. 71 and human PD-L1-His were performed as follows. Macrocyclic peptide inhibitors were pre-incubated with PD-L1-His (10 nM final) for 60 minutes in 4 μl of assay buffer followed by addition of biotinylated Compound No. 71 (0.5 nM final) in 1 μl of assay buffer. Binding was allowed to equilibrate for 30 minutes followed by addition of europium crypated labeled Streptavidin (2.5 pM final) and APC-labeled anti-His (20 nM final) in 5 μl of HTRF buffer. The reaction was allowed to equilibrate for 30 m and signal (665 nm/620 nm ratio) was obtained using an EnVision fluorometer.
Recombinant Proteins. Carboxyl-truncated human PD-1 (amino acids 25-167) with a C-terminal human Ig epitope tag [hPD-1 (25-167)-3S-IG] and human PD-L1 (amino acids 18-239) with a C-terminal His epitope tag [hPD-L1(19-239)-tobacco vein mottling virus protease cleavage site (TVMV)-His] were expressed in HEK293T cells and purified sequentially by recombinant Protein A affinity chromatography and size exclusion chromatography. Human PD-L2-His (Sino Biologicals), CD80-His (Sino Biologicals), CTLA4-Ig (RnD Systems) were all obtained through commercial sources.
For orientation: TR-FRET usually uses a lanthanide donor and a delayed reading to cut background.
`CCCC[C@H]1C(=O)N(C)[C@@H](CCCC)C(=O)N[C@@H](CC(C)C)C(=O)N[C@H](C(=O)NCC(=O)NCCC(=O)OC(C)(C)C)CSCC(=O)N[C@@H](Cc2ccc(O)cc2)C(=O)N(C)[C@@H](C)C(=O)N[C@@H](CC(N)=O)C(=O)N2CCC[C@H]2C(=O)N[C@@H](CN)C(=O)N[C@@H](CC(C)C)C(=O)N2C[C@H](O)C[C@H]2C(=O)N[C@@H](Cc2c[nH]c3ccccc23)C(=O)NCC(=O)NC(Cc2c[nH]c3ccccc23)C(=O)N1C` (stereo partly shown) [Example 13109] ({CH2CO}-Y[NMeA]NP[Dap]L[Hyp]WG[ξW][NMeNle][NMeNle]LCG[βAla]-OtBu; thioether N-14): the pIC50 (commonly −log10 of the IC50, conventionally taken in molar units) was 7.22 to 8.00.

As to `CCCC[C@H]1C(=O)N(C)[C@@H](CCCC)C(=O)N[C@@H](CC(C)C)C(=O)N[C@H](C(=O)NCC(=O)NCCC(N)=O)CSCC(=O)N[C@@H](Cc2ccc(O)cc2)C(=O)N(C)[C@@H](C)C(=O)N[C@@H](CC(N)=O)C(=O)N2CCC[C@H]2C(=O)N[C@@H](CN)C(=O)N[C@@H](CC(C)C)C(=O)N2C[C@H](O)C[C@H]2C(=O)N[C@@H](Cc2c[nH]c3ccccc23)C(=O)NCC(=O)NC(Cc2c[nH]c3ccccc23)C(=O)N1C` (stereo partly shown) [Example 13110] ({CH2CO}-Y[NMeA]NP[Dap]L[Hyp]WG[ξW][NMeNle][NMeNle]LCG[βAla]-NH2; thioether N-14), the pIC50 is 8.00 to 8.40.

As to `CCCC[C@H]1C(=O)N(C)[C@@H](CCCC)C(=O)N[C@@H](CC(C)C)C(=O)N[C@H](C(=O)NCC(=O)N2CCC(CO)CC2)CSCC(=O)N[C@@H](Cc2ccc(O)cc2)C(=O)N(C)[C@@H](C)C(=O)N[C@@H](CC(N)=O)C(=O)N2CCC[C@H]2C(=O)N[C@@H](CN)C(=O)N[C@@H](CC(C)C)C(=O)N2C[C@H](O)C[C@H]2C(=O)N[C@@H](Cc2c[nH]c3ccccc23)C(=O)NCC(=O)NC(Cc2c[nH]c3ccccc23)C(=O)N1C` (stereo partly shown) [Example 13111] ({CH2CO}-Y[NMeA]NP[Dap]L[Hyp]WG[ξW][NMeNle][NMeNle]LCG-X12; thioether N-14), the pIC50 was 7.22 to 8.00.

`CCCC[C@H]1C(=O)N(C)[C@@H](CCCC)C(=O)N[C@@H](CC(C)C)C(=O)N[C@H](C(=O)NCC(=O)NCCCCCNC(=O)OC(C)(C)C)CSCC(=O)N[C@@H](Cc2ccc(O)cc2)C(=O)N(C)[C@@H](C)C(=O)N[C@@H](CC(N)=O)C(=O)N2CCC[C@H]2C(=O)N[C@@H](CN)C(=O)N[C@@H](CC(C)C)C(=O)N2C[C@H](O)C[C@H]2C(=O)N[C@@H](Cc2c[nH]c3ccccc23)C(=O)NCC(=O)NC(Cc2c[nH]c3ccccc23)C(=O)N1C` (stereo partly shown) [Example 13112] ({CH2CO}-Y[NMeA]NP[Dap]L[Hyp]WG[ξW][NMeNle][NMeNle]LCG-X7; thioether N-14) showed a pIC50 of 7.22 to 8.00.

Molecule `CCCC[C@H]1C(=O)N(C)[C@@H](CCCC)C(=O)N[C@@H](CC(C)C)C(=O)N[C@H](C(=O)NCC(=O)NCCN(C)C(=O)OC(C)(C)C)CSCC(=O)N[C@@H](Cc2ccc(O)cc2)C(=O)N(C)[C@@H](C)C(=O)N[C@@H](CC(N)=O)C(=O)N2CCC[C@H]2C(=O)N[C@@H](CN)C(=O)N[C@@H](CC(C)C)C(=O)N2C[C@H](O)C[C@H]2C(=O)N[C@@H](Cc2c[nH]c3ccccc23)C(=O)NCC(=O)NC(Cc2c[nH]c3ccccc23)C(=O)N1C` (stereo partly shown) [Example 13113] ({CH2CO}-Y[NMeA]NP[Dap]L[Hyp]WG[ξW][NMeNle][NMeNle]LCG-X3; thioether N-14) showed a pIC50 of 7.22 to 8.00.

Consider `CCCC[C@H]1C(=O)N(C)[C@@H](CCCC)C(=O)N[C@@H](CC(C)C)C(=O)N[C@H](C(=O)NCC(=O)N2CCNC(=O)C2)CSCC(=O)N[C@@H](Cc2ccc(O)cc2)C(=O)N(C)[C@@H](C)C(=O)N[C@@H](CC(N)=O)C(=O)N2CCC[C@H]2C(=O)N[C@@H](CN)C(=O)N[C@@H](CC(C)C)C(=O)N2C[C@H](O)C[C@H]2C(=O)N[C@@H](Cc2c[nH]c3ccccc23)C(=O)NCC(=O)NC(Cc2c[nH]c3ccccc23)C(=O)N1C` (stereo partly shown) [Example 13114] ({CH2CO}-Y[NMeA]NP[Dap]L[Hyp]WG[ξW][NMeNle][NMeNle]LCG-X6; thioether N-14), for which the pIC50 was 8.00 to 8.40.

`CCCC[C@H]1C(=O)N(C)[C@@H](CCCC)C(=O)N[C@@H](CC(C)C)C(=O)N[C@H](C(=O)NCC(=O)N2CCC(c3ccc(Cl)cc3)CC2)CSCC(=O)N[C@@H](Cc2ccc(O)cc2)C(=O)N(C)[C@@H](C)C(=O)N[C@@H](CC(N)=O)C(=O)N2CCC[C@H]2C(=O)N[C@@H](CN)C(=O)N[C@@H](CC(C)C)C(=O)N2C[C@H](O)C[C@H]2C(=O)N[C@@H](Cc2c[nH]c3ccccc23)C(=O)NCC(=O)NC(Cc2c[nH]c3ccccc23)C(=O)N1C` (stereo partly shown) [Example 13115] ({CH2CO}-Y[NMeA]NP[Dap]L[Hyp]WG[ξW][NMeNle][NMeNle]LCG-X5; thioether N-14) had a pIC50 of 7.22 to 8.00.

In turn, `CCCC[C@H]1C(=O)N(C)[C@@H](CCCC)C(=O)N[C@@H](CC(C)C)C(=O)N[C@H](C(=O)NCC(=O)NCCS(C)(=O)=O)CSCC(=O)N[C@@H](Cc2ccc(O)cc2)C(=O)N(C)[C@@H](C)C(=O)N[C@@H](CC(N)=O)C(=O)N2CCC[C@H]2C(=O)N[C@@H](CN)C(=O)N[C@@H](CC(C)C)C(=O)N2C[C@H](O)C[C@H]2C(=O)N[C@@H](Cc2c[nH]c3ccccc23)C(=O)NCC(=O)NC(Cc2c[nH]c3ccccc23)C(=O)N1C` (stereo partly shown) [Example 13116] ({CH2CO}-Y[NMeA]NP[Dap]L[Hyp]WG[ξW][NMeNle][NMeNle]LCG-X13; thioether N-14) had a negative logarithm of the IC50 (pIC50) of 7.22 to 8.00.

`CCCC[C@H]1C(=O)N(C)[C@@H](CCCC)C(=O)N[C@@H](CC(C)C)C(=O)N[C@H](C(=O)NCC(=O)N2CCN(c3ccccc3)CC2)CSCC(=O)N[C@@H](Cc2ccc(O)cc2)C(=O)N(C)[C@@H](C)C(=O)N[C@@H](CC(N)=O)C(=O)N2CCC[C@H]2C(=O)N[C@@H](CN)C(=O)N[C@@H](CC(C)C)C(=O)N2C[C@H](O)C[C@H]2C(=O)N[C@@H](Cc2c[nH]c3ccccc23)C(=O)NCC(=O)NC(Cc2c[nH]c3ccccc23)C(=O)N1C` (stereo partly shown) [Example 13117] ({CH2CO}-Y[NMeA]NP[Dap]L[Hyp]WG[ξW][NMeNle][NMeNle]LCG-{Piperazinyl(4-Ph)}; thioether N-14): the pIC50 was 8.00 to 8.40.

Consider `CCCC[C@H]1C(=O)N(C)[C@@H](CCCC)C(=O)N[C@@H](CC(C)C)C(=O)N[C@H](C(=O)N(C)CC(N)=O)CSCC(=O)N[C@@H](Cc2ccc(O)cc2)C(=O)N(C)[C@@H](C)C(=O)N[C@@H](CC(N)=O)C(=O)N2CCC[C@H]2C(=O)N[C@@H](CN)C(=O)N[C@@H](CC(C)C)C(=O)N2C[C@H](O)C[C@H]2C(=O)N[C@@H](Cc2c[nH]c3ccccc23)C(=O)NCC(=O)N[C@@H](Cc2c[nH]c3ccccc23)C(=O)N1C` [Example 13119] ({CH2CO}-Y[NMeA]NP[Dap]L[Hyp]WGW[NMeNle][NMeNle]LC[Sar]-NH2; thioether N-14), for which the pIC50 is 7.22 to 8.00.
